Source: US20060147456A1, “Induction of apoptosis in toll-like receptor expressing tumor cells” (priority 2004, published 2006)

How the values were obtained:
[1] = test system: eye tumors; experiment: Eye tumor development in TRP-Tag/IFNαβγR−/− mice; assay type: in vivo, mouse; conditions: 100 μg/dose intravenous on days 21, 23, 25, 27 and 29
Protocol: We analyzed the effect of IFN on Poly IC induced apoptosis in vivo. TRP-Tag mice express SV40 T antigen in the retinal pigmented epithelium and typically develop eye tumors with complete penetrance within weeks from birth.
In these experiments, fourteen to sixteen TRP-Tag/IFNαβγR−/− mice per experiment (these are TPR-Tag mice that had been crossed to mice simultaneously deficient in the receptor for type I interferons (IFNαβR) and the receptor for type II interferon (IFNγR)) were treated on days 21, 23, 25, 27 and 29 by intravenous injections of either Poly IC (100 μg/dose) or PBS. The kinetics of visible eye tumor development was monitored 2-3 times per week.

[2] = test system: phosphorylated Stat1 (tyrosine 701); experiment: Western Blot of Cama-1 cell lysate for phosphorylated Stat1; assay type: cell-based, human; conditions: 5 μg/ml Poly IC
Protocol: Cama-1 cells were lysed in 1% Nonidet-P40-containing buffer. 20 μg total protein was loaded per lane on SDS-Polyacrylamide gels (Invitrogen). Western Blots (WB) were performed with standard techniques using the antibodies described above. Anti IRAK-4 monoclonal antibodies were generated in the laboratory according to the protocol described in Fossiez et al., “T cell interleukin-17 induces stromal cells to produce proinflammatory and hematopoietic cytokines”, J. Exp. Med., vol. 183(6), pp. 2593-2603 (1996).
The involvement of type 1 interferon in TLR3 mediated apoptosis was evaluated. Cama-1 cells were incubated with 5 μg/ml Poly IC for either 0 hours, 1 hour, 6 hours, 18 hours or 24 hours. The presence of IFN-β, phosphorylated Stat1 (tyrosine 701) (P-Stat-1) and total Stat-1 in the cell lysate were analyzed by Western Blot.

[3] = test system: Cama-1 cells; experiment: Apoptosis by annexin V staining and flow cytometry; assay type: cell-based, human
Protocol: Cell recovery after treatment with TLR ligands was measured by crystal violet staining (Sigma-Aldrich). Cells were plated at 10^4 cells/well in 96 well plates. After 72 hours of culture either with or without TLR ligand, the cells were washed with PBS, fixed in 6% formaldehyde (Sigma-Aldrich) for 20 minutes, washed twice, and then stained with 0.1% crystal violet for 10 minutes. After washes and incubation in 1% SDS for 1 hour, the absorbance was read at 605 nm on a Vmax plate reader (Molecular Devices, Sunnyvale, Calif.). Annexin V staining was performed with an annexin-FITC apoptosis detection kit (BD Pharmingen, San Diego, Calif.) according to the manufacturer's instructions. Sub-diploid cells were detected by staining with 3 μg/mL propidium iodide (PI) (Molecular probes, Eugene, Oreg.), after overnight permeabilization in 70% ethanol. Fluorescence was analyzed by flow cytometry on a FACScalibur (Becton Dickinson, Mountain View, Calif.) equipped with a doublet-discrimination module and using Celiquest Pro software (Becton Dickinson).
Cama-1 cells were plated in 6 well plates at 3×10^5 cells per well. After overnight adherence, siRNA transfections were performed for 5 hours in OptiMEM medium (Life technologies) containing 3 μg/mL lipofectamine 2000 (Invivogen) and 100 nM siRNA. Cells were then washed and cultured for 72 hours in complete medium before treatment with Poly IC and apoptosis analysis. siRNA duplexes specific for TLR3, PKR, IRAK-4, TRAF6 and p65 were purchased from Dharmacon (Lafayette, Colo.) as SMART-Pools. TRIF siRNA was purchased from the same supplier as single oligoduplexes (5′-GCUCUUGUAUCUGMGCAC-3′) (SEQ ID NO: 23). TLR3 and TRIF expression was assessed by PCR (35 cycles: 1 min 94° C., 1 min 55° C., 2 min 72° C.) with Taq PCR ReadyMix (Sigma-Aldrich) using following primers: […]
To further investigate the effect of Poly IC treatment on breast tumor cell lines, cell death was analyzed in Cama-1 cells by annexin V staining. Cells were cultured for 24 hours either with or without 5 μg/ml of Poly IC. Apoptosis was measured by annexin V staining and flow cytometry.
We also tried to determine the kinetics of Poly IC induced apoptosis. Cama-1 cells were cultured either with or without 5 μg/ml or 50 ng/ml of Poly IC. The percentage of apoptotic (annexin positive) cells in the culture were measured during the following 30 hours. […] Specifically, Poly IC triggered apoptosis in Cama-1 cells beginning 9 hours after Poly IC addition and reaching up to 80% apoptotic cells after 30 hours of treatment.
Poly AU was analyzed for its effects on apoptosis. Cama-1 cells were cultured for 48 hours either with PBS or with increasing concentrations of Poly AU ranging from 5 ng/ml to 50 μg/ml. Apoptosis was analyzed by measuring the percentage of annexin V positive cells.
In order to determine the pathway of Poly IC induced Cama-1 cell toxicity, RNA interference was used to efficiently downregulate expression of TRIF and PKR. Cama-1 cells were plated in 6 well plates at 3×10^5 cells per well. After overnight adherence, siRNA transfections were performed for 5 hours in OptiMEM medium (Life technologies) containing 3 μg/mL lipofectamine 2000 (Invivogen) and 100 nM siRNA. Cells were transfected with either MOCK (water), control scrambled duplex (scr) siRNA, TRIF siRNA or PKR siRNA.
72 hours after siRNA transfection, Cama-1 cells were cultured for another 24 hours either with or without 5 μg/ml Poly IC. Apoptosis was measured by annexin V staining and expressed as a percentage of apoptotic cells in culture. On average, 10% of control cells (MOCK and scr) that were untreated underwent apoptosis. In contrast, about 75% of control cells (MOCK and scr) that were treated with Poly IC underwent apoptosis.
To further investigate TLR3 mediated cytotoxicity, the involvement of the signaling molecules IRAK4 and TRAF6, both downstream mediators of TLR signaling, were assessed. Cama-1 cells were plated in 6 well plates at 3×10^5 cells per well. […]

polyinosinic-polycytidylic acid [Poly IC]
delay of appearance of eye tumors compared to PBS [1]: up to 21 days
time of maximum Stat1 phosphorylation [2]: 6 h
Stat1 phosphorylation ([2]; 0 to 24 hours): observed
apoptotic (annexin positive) cells after 30 hours ([3]; Cama-1, 5 μg/ml or 50 ng/ml Poly IC, untreated 15%): 80%
percentage of apoptotic cells ([3]; Cama-1, 25 μM z-VAD-fmk pre-incubation 1 h, 24 h, 5 μg/ml Poly IC or 25 ng/ml TNF-α): 30%
cells stained by Annexin V ([3]; Cama-1, 24 h, 5 μg/ml Poly IC): over 70%
percentage of apoptotic cells ([3]; Cama-1, DMSO pre-incubation 1 h, 24 h, 5 μg/ml Poly IC or 25 ng/ml TNF-α): 70%
percentage of apoptotic cells ([3]; Cama-1, absence of antibody (Example 11), 24 h, 5 μg/ml Poly IC or 1000 U/ml each IFN-α/IFN-β): 70%
percentage of apoptotic cells ([3]; Cama-1, absence of antibody (Example 12), 5 μg/ml Poly IC or 25 ng/ml TNF-α): 70%
beginning of apoptosis after Poly IC addition ([3]; Cama-1, kinetics over 30 hours): 9 h
percentage of apoptotic cells ([3]; Cama-1, pre-incubated 1 h with 20 μg/ml anti-IFN R1 mAb, 24 h, 5 μg/ml Poly IC or 1000 U/ml IFN-α/IFN-β): 30%
percentage of apoptotic cells ([3]; Cama-1, pre-incubated 1 h with 20 μg/ml isotype control mouse IgG1, 24 h, 5 μg/ml Poly IC or 1000 U/ml IFN-α/IFN-β): 70%
percentage of apoptotic cells ([3]; Cama-1, pre-incubated with 10 μg/ml CHX, 5 μg/ml Poly IC or 25 ng/ml TNF-α, untreated 15%): 40%
percentage of apoptotic cells ([3]; Cama-1, pre-incubated with 20 μg/ml neutralizing anti TNF-α mAb, 5 μg/ml Poly IC or 25 ng/ml TNF-α): 65%
percentage of apoptotic cells ([3]; Cama-1 control cells (MOCK and scr), 24 h with 5 μg/ml Poly IC, untreated 10%): about 75%
percentage of apoptotic cells ([3]; Cama-1 control cells (scr), Example 10, 24 h with 5 μg/ml Poly IC, untreated 10%): about 75%
percentage of apoptotic cells ([3]; Cama-1 scr group, 24 h, Poly IC 50 ng/ml): 20%
percentage of apoptotic cells ([3]; Cama-1 scr group, 24 h, Poly IC 5 μg/ml): 70%
percentage of apoptotic cells ([3]; Cama-1 siRNA p65 group, 24 h, Poly IC 50 ng/ml): 10%
percentage of apoptotic cells ([3]; Cama-1 siRNA p65 group, 24 h, Poly IC 5 μg/ml): 20%
